Patent US10736864B2, “Immunotherapeutic agent” (Immodulon Therapeutics Limited, priority 2016, dated 2020)

Assays:
[1] = tested on: splenocytes stimulated in vitro with ovalbumin; test: In vitro splenocyte culture from treated mice, ovalbumin stimulation (cytokine ELISA); format: in vivo, BALB/c mice; conditions: FIG. 3B; mice treated 5 μg s.c.; allergen (ovalbumin) stimulation; vs buffer
[2] = tested on: allergic mice challenged with ovalbumin; test: Murine model of allergic pulmonary inflammation: treatment studies (BAL cells and cytokines); format: in vivo, BALB/c mice; conditions: vs vehicle; for number of eosinophils recovered in the BAL fluid / numbers of macrophages in BAL fluid / total cellular infiltrate in BAL fluid / IL-5 concentrations in the BAL fluid / IL-10 concentrations in the BAL fluid: Experiments 5 and 6, lipid 5 μg s.c.; for number of eosinophils recovered in the BAL fluid / numbers of macrophages in BAL fluid / total cellular infiltrate in BAL fluid: M. vaccae 0.1 mg s.c.
[3] = tested on: freshly isolated murine peritoneal macrophages; test: LPS-induced IL-6 secretion in freshly isolated peritoneal macrophages (ELISA); format: cell-based, BALB/c mice
Protocol: Experiment 7 was carried out to resolve if 10(Z)-hexadecenoic acid has a direct effect on immune cells. Macrophages were selected for this study on account of their ubiquity and diverse role in immune processes. To simulate inflammation, freshly isolated mouse peritoneal macrophages were challenged with lipopolysaccharide (LPS; 1 μg/mL) ex vivo.
Murine peritoneal macrophages were isolated as previously described (Zhang, X. et al. (2008)). Briefly, mice received one 1 ml i.p. injection of 3% thioglycollate medium (Cat. No. 9000-294, VWR, Radnor, Pa., USA). Ninety-six hours later, macrophages were collected in DPBS (Cat. No. 14190136, Invitrogen, Carlsbad, Calif., USA). Cells were centrifuged and resuspended in DMEM/F-12 (Cat. No. 10565018, Invitrogen) supplemented to be 10% (v/v) fetal bovine serum (Cat. No. 16000036, Invitrogen) and 1% penicillin/streptomycin (Cat. No. 15140148, Invitrogen). One mouse yielded enough cells for one experimental replicate. 1×10^5 cells/well were allowed to adhere for 1.5 h before being washed with DPBS. 10(Z)-hexadecenoic acid was dissolved in DMEM/F-12 with 0.5% (v/v) dimethyl sulfoxide (Cat. No. D8418, Sigma-Aldrich). The macrophages were incubated with either 10(Z)-hexadecenoic acid (0.4 μM, 4 μM, 20 μM, 100 μM, 500 μM, 1000 μM) or DMEM/F-12 for 1 h before being stimulated with 1 μg/ml lipopolysaccharide (serotype 0127:B8, Sigma-Aldrich, St. Louis, Mo., USA). Culture supernatants were collected at 6, 12, and 24 h post-stimulation.
Cell culture supernatants from freshly isolated peritoneal macrophages were diluted 1:200, and IL-6 was measured using sandwiched ELISA (Cat. No. 431304, Biolegend, San Diego, Calif., USA). All samples were measured in duplicate.

[4] = tested on: freshly isolated murine peritoneal macrophages; test: Proinflammatory cytokine and chemokine ligand mRNA levels (RNAseq) in LPS-stimulated peritoneal macrophages; format: cell-based
Protocol: This can be measured using RNAseq analysis of freshly isolated murine peritoneal macrophages stimulated with LPS, in the presence or absence of 10(Z)-hexadecenoic acid. […] Compounds of the invention are therefore useful in inhibiting the proinflammatory cascade that contributes to the pathology of sepsis.
This difference was observable as early as 6 h after LPS challenge, and was sustained for at least 24 h. The effect also appeared to be concentration and time dependent. The lowest concentration of 0.4 μM was ineffective at 6 h, but reduced IL-6 secretion to 40% of control levels at 24 h. This time and concentration dependence may indicate that a receptor-mediated transcriptional change is occurring. In contrast to the effects of 10(Z)-hexadecenoic acid on LPS-induced IL-6 secretion, it had no effect of IL-6 secretion by itself (FIG. 4D). A transcriptional change was confirmed by measurement of pro-inflammatory cytokine and chemokine ligand mRNA levels in macrophages pre-treated with 10(Z)-hexadecenoic acid for 1 h prior to LPS treatment (Table 2).

[5] = tested on: freshly isolated murine peritoneal macrophages; test: Sulforhodamine B (SRB) macrophage cell viability / cytotoxicity assay
Protocol: Sulforhodamine B (SRB) was used to assess cytotoxic effects of various concentrations of 10(Z)-hexadecenoic acid (10 μM, 50 μM, 100 μM, 250 μM, 500 μM, 1000 μM) after 0, 6, 12, 24, 48, and 72 h of incubation with freshly isolated murine peritoneal macrophages. Percent control growth is expressed as % viability and is a ratio of the amount of growth that occurred with treatment over the amount of growth that occurred in media. […] Data are expressed as mean±SEM of 3-7 mice per condition.
Cytotoxicity was determined using the sulforhodamine B (SRB) colorimetric assay, as previously described (Vichai and Kirtikara, 2006). Briefly, without removing the culture media, cells were fixed by adding cold trichloroacetic acid and incubated at 4° C. for 1 h. The plates were washed with slow-running tap water and set out to dry overnight. Then, 0.057% SRB (Cat. No. AC333130050, Fisher, Pittsburgh, Pa., USA), solubilized in 10 mMTris (Cat. No. BP153, Fisher), was added to each well. After 30 min, plates were washed with 1% acetic acid and set out to dry overnight. SRB was measured at 490 nm on a Synergy HT microplate reader (Part Number 7091000, Biotek, Winooski, Vt., USA). Cell viability was expressed as the ratio of experimental and control growth.

Compound: CCCCC/C=C\CCCCCCCCC(=O)OCC(COC(=O)CCCCCCCC/C=C\CCCCC)OC(=O)CCCCCCCC/C=C\CCCCC [1,2,3-tri[Z-10-hexadecenoyl]glycerol]
- IL-5 levels in the supernatant of splenocytes [1]: decrease
- IL-10 levels in the supernatant of splenocytes [1]: increase
- number of eosinophils recovered in the BAL fluid [2]: reduction
- numbers of macrophages in BAL fluid [2]: not increased
- total cellular infiltrate in BAL fluid [2]: reduction
- IL-5 concentrations in the BAL fluid [2]: decrease
- IL-10 concentrations in the BAL fluid [2]: increase

Compound: CCCCC/C=C\CCCCCCCCC(=O)O [10(Z)-hexadecenoic acid]
- numbers of neutrophils in BAL fluid ([2]; Experiment 6): did not induce increases
- number of eosinophils recovered in the BAL fluid [2]: significant reduction
- numbers of macrophages in BAL fluid [2]: did not induce increases
- total cellular infiltrate in BAL fluid [2]: significant reduction
- IL-5 concentrations in the BAL fluid [2]: decrease
- IL-10 concentrations in the BAL fluid [2]: increase
- LPS-induced IL-6 secretion ([3]; 0.4 μM, 6 h after LPS): ineffective
- LPS-induced IL-6 secretion ([3]; 0.4 μM, 24 h after LPS): 40 % of control levels
- LPS-induced IL-6 secretion ([3]; 1 h preincubation (0.4-1000 μM), LPS 1 μg/mL, 6, 12, 24 h, vs media alone): secreted less IL-6
- IL-6 secretion by itself ([3]; absence of LPS, FIG. 4D): no effect
- Ccl17 mRNA Mean #Reads s148.2 + LPS ([4]; preincubation then LPS, n = 3, LPS alone 24): 3
- II11 mRNA Mean #Reads s148.2 + LPS ([4]; preincubation then LPS, n = 3, LPS alone 26): 5
- Ccl22 mRNA Mean #Reads s148.2 + LPS ([4]; preincubation then LPS, n = 3, LPS alone 327): 117
- Ccl4 mRNA Mean #Reads s148.2 + LPS ([4]; preincubation then LPS, n = 3, LPS alone 603): 305
- II12a mRNA Mean #Reads s148.2 + LPS ([4]; preincubation then LPS, n = 3, LPS alone 714): 268
- Ccl6 mRNA Mean #Reads s148.2 + LPS ([4]; preincubation then LPS, n = 3, LPS alone 810): 368
- Ccl7 mRNA Mean #Reads s148.2 + LPS ([4]; preincubation then LPS, n = 3, LPS alone 1182): 441
- II6 mRNA Mean #Reads s148.2 + LPS ([4]; preincubation then LPS, n = 3, LPS alone 1302): 305
- Tnf mRNA Mean #Reads s148.2 + LPS ([4]; preincubation then LPS, n = 3, LPS alone 2098): 1023
- Cxcl2 mRNA Mean #Reads s148.2 + LPS ([4]; preincubation then LPS, n = 3, LPS alone 4726, functional homologue of human IL-8): 2680
- Ccl2 mRNA Mean #Reads s148.2 + LPS ([4]; preincubation then LPS, n = 3, LPS alone 5656): 2234
- Ccl3 mRNA Mean #Reads s148.2 + LPS ([4]; preincubation then LPS, n = 3, LPS alone 6693): 4067
- II1b mRNA Mean #Reads s148.2 + LPS ([4]; preincubation then LPS, n = 3, LPS alone 15,957): 5349
- II1a mRNA Mean #Reads s148.2 + LPS ([4]; preincubation then LPS, n = 3, LPS alone 16533): 8500
- Ccl2 mRNA Effect ([4]; vs LPS alone): ↓
- Ccl2 mRNA Fold-change ([4]; vs LPS alone): 0.39
- Ccl2 mRNA Log2 Fold-change ([4]; vs LPS alone): −1.34
- Ccl3 mRNA Effect ([4]; vs LPS alone): ↓
- Ccl3 mRNA Fold-change ([4]; vs LPS alone): 0.61
- Ccl3 mRNA Log2 Fold-change ([4]; vs LPS alone): −0.72
- Ccl4 mRNA Effect ([4]; vs LPS alone): ↓
- Ccl4 mRNA Fold-change ([4]; vs LPS alone): 0.51
- Ccl4 mRNA Log2 Fold-change ([4]; vs LPS alone): −0.98
- Ccl6 mRNA Effect ([4]; vs LPS alone): ↓
- Ccl6 mRNA Fold-change ([4]; vs LPS alone): 0.45
- Ccl6 mRNA Log2 Fold-change ([4]; vs LPS alone): −1.14
- Ccl7 mRNA Effect ([4]; vs LPS alone): ↓
- Ccl7 mRNA Fold-change ([4]; vs LPS alone): 0.37
- Ccl7 mRNA Log2 Fold-change ([4]; vs LPS alone): −1.42
- Ccl17 mRNA Effect ([4]; vs LPS alone): ↓
- Ccl17 mRNA Fold-change ([4]; vs LPS alone): 0.12
- Ccl17 mRNA Log2 Fold-change ([4]; vs LPS alone): −3.08
- Ccl22 mRNA Effect ([4]; vs LPS alone): ↓
- Ccl22 mRNA Fold-change ([4]; vs LPS alone): 0.36
- Ccl22 mRNA Log2 Fold-change ([4]; vs LPS alone): −1.48
- Cxcl2 mRNA Effect ([4]; vs LPS alone): ↓
- Cxcl2 mRNA Fold-change ([4]; vs LPS alone): 0.57
- Cxcl2 mRNA Log2 Fold-change ([4]; vs LPS alone): −0.82
- II1a mRNA Effect ([4]; vs LPS alone): ↓
- II1a mRNA Fold-change ([4]; vs LPS alone): 0.51
- II1a mRNA Log2 Fold-change ([4]; vs LPS alone): −0.96
- II1b mRNA Effect ([4]; vs LPS alone): ↓
- II1b mRNA Fold-change ([4]; vs LPS alone): 0.34
- II1b mRNA Log2 Fold-change ([4]; vs LPS alone): −2.16
- II6 mRNA Effect ([4]; vs LPS alone): ↓
- II6 mRNA Fold-change ([4]; vs LPS alone): 0.23
- II6 mRNA Log2 Fold-change ([4]; vs LPS alone): −2.09
- II11 mRNA Effect ([4]; vs LPS alone): ↓
- II11 mRNA Fold-change ([4]; vs LPS alone): 0.20
- II11 mRNA Log2 Fold-change ([4]; vs LPS alone): −2.35
- II12a mRNA Effect ([4]; vs LPS alone): ↓
- II12a mRNA Fold-change ([4]; vs LPS alone): 0.37
- II12a mRNA Log2 Fold-change ([4]; vs LPS alone): −1.42
- Tnf mRNA Effect ([4]; vs LPS alone): ↓
- Tnf mRNA Fold-change ([4]; vs LPS alone): 0.49
- Tnf mRNA Log2 Fold-change ([4]; vs LPS alone): −1.04
- viable macrophages ([5]; 1 mM, at most time points (0-72 h)): less than 40%
- macrophage viability ([5]; all other concentrations (10-500 μM), vs media controls): as viable as or more viable than media controls
